# Test results published in BindingDB's records for patent US20250235456 (Iambic Therapeutics, 2025).
# Tests used:
# [1] = molecular target: Cyclin-dependent kinase 1 (Homo sapiens, UniProt P06493); assay: CDK1/Cyclin B1 ADP-Glo Kinase Assay
# Procedure: (§1) The purpose of CDK1/Cyclin Bi assay is to evaluate the inhibition (% inhibition and IC50 values) of small molecule inhibitors by using a Luminescent based ADP-Glo assay. CDK1/Cyclin B1 catalyzes the production of ADP from ATP. ADP-Glo assay monitors ADP producing biochemical reactions. ADP-Glo is performed in 2 steps upon completion of kinase reaction: a combined termination of kinase reaction and depletion of remaining ATP in the first step, and conversion of generated ADP to ATP and the newly produced ATP to light output using luciferase/luciferin reaction in the second step. The luminescent signal generated is proportional to the ADP concentration produced and is correlated with the kinase activity. CDK1/Cyclin B1 was purchased from Carna (Cat 04-102). […] The assay was initiated with the addition of ATP-containing substrate solution, following a 30-minute pre-incubation of enzyme and inhibitor at room temperature in the reaction mixture. The reaction was stopped after 90 minutes at room temperature by the addition of 10 μL of ADP-GLO Reagent. After a 90 minute incubation, 20 μL of Kinase Detection Reagent was added. Samples were incubated for 40 minutes, after which plate well luminescence was measured on a Envision microplate reader. The IC50 determinations were made from a plot of the fractional velocity as a function of inhibitor concentration fit to the 4 parameters IC50 equation.
# [2] = molecular target: Cyclin-dependent kinase 2/G1/S-specific cyclin-E1 (Homo sapiens, UniProt P24941); assay: CDK2/Cyclin E1 ADP-Glo Kinase Assay
# Procedure: as §1, with “of CDK2/Cyclin El” for “of CDK1/Cyclin Bi”, “assay. CDK2/Cyclin El full length” for “assay. CDK1/Cyclin B1”, “activity. CDK2/Cyclin E1” for “activity. CDK1/Cyclin B1”, “from Eurofins” for “from Carna”, “(Cat 14-475M).” for “(Cat 04-102).”, “20 uL” for “20 μL”
# [3] = molecular target: Cyclin-dependent kinase 6/G1/S-specific cyclin-D3 (Homo sapiens, UniProt Q00534); assay: CDK6/Cyclin D3 ADP-Glo Kinase Assay
# Chain of Cyclin-dependent kinase 6/G1/S-specific cyclin-D3 (Q00534 whole entry): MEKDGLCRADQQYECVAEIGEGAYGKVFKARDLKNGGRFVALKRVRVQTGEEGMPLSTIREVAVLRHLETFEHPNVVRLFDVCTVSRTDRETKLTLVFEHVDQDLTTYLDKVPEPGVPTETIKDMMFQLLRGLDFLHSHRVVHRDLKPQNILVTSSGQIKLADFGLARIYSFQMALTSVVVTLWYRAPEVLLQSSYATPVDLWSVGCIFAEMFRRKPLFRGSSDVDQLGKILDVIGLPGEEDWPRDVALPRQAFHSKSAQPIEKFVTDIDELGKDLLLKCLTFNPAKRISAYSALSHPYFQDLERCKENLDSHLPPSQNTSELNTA
# Chain of Cyclin-dependent kinase 6/G1/S-specific cyclin-D3 (P30281 whole entry, further chain): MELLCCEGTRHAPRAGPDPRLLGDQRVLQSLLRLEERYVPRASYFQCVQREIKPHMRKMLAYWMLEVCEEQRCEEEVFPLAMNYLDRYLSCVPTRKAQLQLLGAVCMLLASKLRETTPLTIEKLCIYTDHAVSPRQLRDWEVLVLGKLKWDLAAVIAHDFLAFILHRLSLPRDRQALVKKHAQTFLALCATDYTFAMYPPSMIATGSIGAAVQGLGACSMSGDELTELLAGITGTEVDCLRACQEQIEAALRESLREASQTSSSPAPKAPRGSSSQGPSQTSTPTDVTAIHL
# Procedure: as §1, with “of the CDK6/Cyclin D3” for “of CDK1/Cyclin Bi”, “values) in the presence” for “values)”, “assay. CDK6/Cyclin D3” for “assay. CDK1/Cyclin B1”, “activity. CDK6/Cychin D3” for “activity. CDK1/Cyclin B1”, “from Carna.” for “from Carna (Cat 04-102).”, “a 90-minute” for “a 90 minute”
# Chain of Cyclin-dependent kinase 1 (P06493 whole entry): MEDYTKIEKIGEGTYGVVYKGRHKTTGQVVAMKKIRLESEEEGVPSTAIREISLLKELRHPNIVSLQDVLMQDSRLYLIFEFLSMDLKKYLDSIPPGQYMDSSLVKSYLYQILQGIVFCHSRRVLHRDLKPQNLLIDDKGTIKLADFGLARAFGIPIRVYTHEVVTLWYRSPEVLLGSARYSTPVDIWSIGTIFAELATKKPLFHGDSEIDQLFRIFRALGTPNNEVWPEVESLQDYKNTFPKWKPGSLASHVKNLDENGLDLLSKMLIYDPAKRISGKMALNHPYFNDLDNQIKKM
SMILES,IC50 [1] [nM],IC50 [2],IC50 [3] [nM]
"CN1Cc2ccc(Nc3ncc4ccnc(N5CCC6(C5)CC6(F)F)c4n3)cc2C1 (stereo unspecified) [US20250235456, Compound 22]",< 200,< 200 nM,< 200
"Cc1cc2cnc(Nc3cnn(CC4(N(C)C)CC4)c3)nc2c(N2CCC3(C2)CC3(F)F)n1 (stereo unspecified) [US20250235456, Compound 36]",> 2000,in the range around 350 nM,–
"Cc1cc2cnc(NC3CC4CC3CN4C)nc2c(N2CCC3(C2)CC3(F)F)n1 (stereo unspecified) [US20250235456, Compound 43]",> 2000,in the range around 1250 nM,200 to 500
"Cc1cc2cnc(NC3CCN(S(=O)(=O)CCC4(C)CC4)CC3)nc2c(N2CC(F)(F)C3(CNC3)C2)n1 [US20250235456, Compound 67]",200 to 500,< 200 nM,200 to 500
"Cc1cc2cnc(NC3CCN(S(C)(=O)=O)CC3)nc2c(C2CC(C)(CO)C2)n1 (stereo unspecified) [US20250235456, Compound 69]",< 200,–,–
"Cc1cc2cnc(N[C@@H]3CCOC[C@H]3O)nc2c(N2CC(O)(C3CC3)C2)n1 [US20250235456, Compound 86]",> 2000,in the range around 350 nM,200 to 500
"CS(=O)(=O)N1CCC(Nc2ncc3cc(C(F)F)nc(N4CC5(CCNCC5(F)F)C4)c3n2)CC1 [US20250235456, Compound 90]",–,< 200 nM,< 200
"Cc1cc2cnc(NC3CCN(S(=O)(=O)c4ccn(C)n4)CC3)nc2c(N2CC(F)(F)C3(CNC3)C2)n1 [US20250235456, Compound 94]",–,< 200 nM,–

# The next lines start with the values.
IC50 [1] [nM],IC50 [2],IC50 [3] [nM],SMILES
–,< 200 nM,200 to 500,"Cc1cc2cnc(NC3CCN(S(=O)(=O)C4CC4)CC3)nc2c(N2CC3(C2)CN(C2CC2)C3)n1 [US20250235456, Compound 48]"
200 to 500,< 200 nM,< 200,"Cc1cc2cnc(NC3CCN(S(=O)(=O)C4CC4)CC3)nc2c(N2CC(OC3CC3)C2)n1 [US20250235456, Compound 57]"
–,< 200 nM,< 200,"Cc1cc2cnc(NC3CCN(S(=O)(=O)C4(C)CC4)CC3)nc2c(N2CCC3(CN(C)C3)C2)n1 [US20250235456, Compound 59]"
–,< 200 nM,< 200,"Cc1cc2cnc(NC3CCN(S(=O)(=O)C4CC4)CC3)nc2c(N2CC3(CC(O)C3)C2)n1 [US20250235456, Compound 66]"
< 200,< 200 nM,< 200,"Cc1cc2cnc(NC3CCN(S(C)(=O)=O)CC3)nc2c(N2CC3(CNCC3(F)F)C2)n1 [US20250235456, Compound 85]"
< 200,< 200 nM,< 200,"Cc1cc2cnc(NC3CCN(S(C)(=O)=O)CC3)nc2c(N2CC3(CNCC3C(F)F)C2)n1 (stereo unspecified) [US20250235456, Compound 100]"
200 to 500,< 200 nM,< 200,"Cc1cc2cnc(NC3CCN(S(C)(=O)=O)CC3)nc2c(N2CC3(CN(C)CC3(F)F)C2)n1 [US20250235456, Compound 101]"
